Paper PMC12562379, “Facile Synthesis of N-vinylindoles via Knoevenagel Condensation: Molecular Features and Biological Activities” (International Journal of Molecular Sciences, 2025)
In brackets after ≈: the same amount, converted by molar mass. Read-outs that look alike come from different tables or passages of the source.

Key:
[1] = tested on: S. aureus ATCC 6535; test: Microbroth dilution assay; format: cell-based; conditions: Staphylococcus aureus, ATCC6535
[2] = tested on: C. albicans ATCC 10231; test: Microbroth dilution assay; format: cell-based, Candida albicans
Method: (§1) The minimum inhibitory concentration (MIC) and minimum bactericidal/fungicidal concentration (MBC/MFC) of the tested compounds were determined by the microbroth dilution technique using 96-well plates based on the methodology described in the EUCAST (European Committee on Antimicrobial Susceptibility Testing) standards. Reference and clinical strains of Gram-positive (Staphylococcus aureus ATCC 6538, Staphylococuccus aureus MRSA 6347) and Gram-negative (Escherichia coli ATCC 8739) bacteria, and yeast (Candida albicans ATCC 10231, Candida glabrata ATCC 2001) were used for the assay. The studies were carried out in the Mueller–Hinton (MH) broth for bacteria and RPMI 1640 broth + MOPS (Sigma-Aldrich, Poland) buffer in the case of yeast. The dry test samples were dissolved in DMSO (dimethyl sulfoxide), resulting in a final concentration of 15 mg/mL, and then diluted in a geometric progression. Ampicillin (Sigma-Aldrich, Poland) acted as a control sample (512 to 4 µg/mL) for bacteria and ketoconazole (128 to 1 µg/mL) (Sigma-Aldrich, Poland) acted as a control sample for yeast. The cultures of microorganisms were prepared by transferring cells from the stock cultures to tubes with the appropriate broth and incubated with agitation in an aerobic atmosphere for 18 ± 2 h at 35 ± 1 °C; next, they were diluted to achieve an optical density corresponding to 5 × 105 (bacteria) or 2 × 105 (yeast) colony-forming units per mL (cfu/mL). An appropriate media (96 µL), along with the tested compounds with a final concentration range of 300–3.1 µg/mL (4 µL) and next microbial suspension (100 µL) were added to each well. Plates with samples were incubated in adequate conditions described above and microbial growth was assessed. […] (>90%; ketoconazole) but 50% (for other compounds) inhibits visible growth of yeasts. Next, as a control of microbial viability, 100 µL of the samples from each well without growth was inoculated on the MH or RPMI agar plates and incubated for 18 ± 2 h at 35 ± 1 °C and finally, the CFU was counted. The MBC/MFC was determined as the minimum concentration of compounds required to kill 99.9% the organisms.

[3] = target: T1, AGE2-BSA/sRAGE interaction (Homo sapiens, UniProt Q15109); test: ELISA AGE2-BSA/sRAGE inhibitory screening; format: binding
T1 construct: purchased Creative BioMart
T1 sequence (Q15109 23-342 limits assumed): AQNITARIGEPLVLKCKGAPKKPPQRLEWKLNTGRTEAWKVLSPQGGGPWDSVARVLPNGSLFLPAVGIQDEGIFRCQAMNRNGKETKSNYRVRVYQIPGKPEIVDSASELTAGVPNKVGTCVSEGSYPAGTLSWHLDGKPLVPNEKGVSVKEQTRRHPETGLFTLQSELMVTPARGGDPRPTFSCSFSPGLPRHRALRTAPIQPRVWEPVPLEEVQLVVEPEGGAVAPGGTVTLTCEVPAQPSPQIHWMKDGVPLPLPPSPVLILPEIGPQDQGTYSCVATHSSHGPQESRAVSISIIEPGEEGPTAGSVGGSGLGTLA
Method: The in vitro inhibitor screening of AGE2 (glyceraldehyde-modified AGE)-sRAGE interaction (soluble RAGE) was performed using a 96-well AGE-BSA-coated plate (Creative BioMart® ELISA kit, Shirley, NY, USA), according to the manufacturer’s instructions. 100 UA/mL soluble RAGE (sRAGE) was incubated with 100 μM of the tested compounds or 0.05% DMSO as a negative control on an AGE2-BSA-coated plate at room temperature for 60 min, shaking at 300 rpm on an orbital microplate shaker. After incubation, the wells were washed 4 times with wash buffer and horseradish peroxidase (HRP)-labeled anti-RAGE antibody was added and the plate was further incubated at room temperature for 60 min, shaking at 300 rpm on an orbital microplate shaker. After incubation, the wells were washed 4 times with wash buffer and the Substrate Reagent was added to each well. After an incubation at room temperature for 5 min, the HRP-labeled antibody sRAGE-AGE complex was then detected by measuring the absorbance at 450 nm using the microplate reader Varioskan (Thermo Fischer Scientific). These experiments were repeated two times.

[4] = tested on: HeLa, SKOV-3, AGS (and HaCaT) cell lines; test: MTT assay, ranges stated over several cell lines; format: cell-based, human; conditions: for IC50: Homo sapiens
Method: (§2) The human ovarian SKOV-3, gastric adenocarcinoma AGS, cervical HeLa cell lines and non-cancerous keratinocytes HaCaT were obtained from the American Type Culture Collection (ATCC, Manassas, VA, USA). The cell lines were cultured in McCoy’s Medium, Dulbecco’s Modified Eagle’s Medium/F12, and DMEM, respectively (Merck Millipore, Burlington, MA, USA). Penicillin (100 units/mL), streptomycin ([…]), and 10% (v/v) fetal bovine serum (FBS) were added to all the media. The cells were incubated at 37 °C and 5% CO2.
(§3) To estimate the cytotoxic activity of the obtained compounds 2a-i, MTT assay was used. The cells (5 × 10^3 cells/well) were treated with the compounds in a range of concentrations 1–150 µg/mL. […] After 24 h, MTT solution (0.5 mg/mL) was added to the cells. Formazan crystals were dissolved in DMSO and the absorbance was measured with a microtiter plate reader (Epoch, BioTek Instruments, Winooski, VT, USA).

[5] = tested on: HaCaT; test: MTT assay, cytotoxic activity on non-cancerous keratinocytes; format: cell-based; conditions: Homo sapiens, 24 h, n = 12
Method: as §2, §3

[6] = tested on: S. aureus MRSA 12673; test: Microbroth dilution assay; format: cell-based; conditions: Staphylococcus aureus, S. aureus MRSA 12673
[7] = tested on: SKOV-3; test: MTT assay, cytotoxic activity; format: cell-based, human; conditions: Homo sapiens, SK-OV-3; SKOV-3, MTT, 24 h, n = 12
Method: as §2, §3

[8] = tested on: HeLa; test: MTT assay, cytotoxic activity; format: cell-based, human; conditions: Homo sapiens, 24 h, n = 12
Method: as §2, §3

[9] = tested on: AGS; test: MTT assay, cytotoxic activity; format: cell-based, human; conditions: Homo sapiens, 24 h, n = 12
Method: as §2, §3

[10] = tested on: C. glabrata ATCC 2001; test: Microbroth dilution assay; format: cell-based, Candida glabrata; conditions: Nakaseomyces glabratus, ATCC2001
Method: as §1

[11] = tested on: SKOV-3 cells; test: Caspase-3/7 assay (apoptosis, Muse Cell Analyzer); format: cell-based, human; conditions: SKOV-3, 24 h
Method: The SKOV-3 cells (5 × 10^5 cells/well) were seeded and incubated with compound 2i at concentrations of 2, 5, 10, 15, 30, and 60 µg/mL for 24 h. Then, the cells were stained with Muse Caspase-3/7 Kit, according to the manufacturer’s instructions. Muse Cell Analyzer and Muse 1.4 Analysis Software (Merck Millipore, Burlington, MA, USA) were used to calculate the amount of live, early apoptotic, late apoptotic, and dead cells. The results are shown as a percentage of the cells in each population obtained from two independently repeated experiments (in three repeats).

[12] = range over the cancer cell lines HeLa, SKOV-3 and AGS

**Q.** For C(=C(\C1=NCCN1)n1ccc2ccccc21)/c1ccc2ccccc2c1 [Compound 2i, (Z)-1-[1-(4,5-dihydro-1H-imidazol-2-yl)-2-(naphthalen-2-yl)vinyl]-1H-indole], which MBC [1] is on record?
**A.** 30 µg/mL (≈ 88.9 µM)

**Q.** What about the MIC [1] of the same compound?
**A.** 15 µg/mL (≈ 44.5 µM)

**Q.** And the MFC ([2]; C. albicans ATCC 10231)?
**A.** 120 µg/mL (≈ 356 µM)

**Q.** What about the MIC ([2]; C. albicans ATCC 10231) of the same compound?
**A.** 120 µg/mL (≈ 356 µM)

**Q.** What about the MFC ([2]; Candida albicans, ATCC10231, C. albicans ATCC 10231, read-out: MFC) of the same compound?
**A.** 60 µg/mL (≈ 178 µM)

**Q.** What about the MIC ([2]; Candida albicans, ATCC10231, C. albicans ATCC 10231, read-out: MIC) of the same compound?
**A.** 60 µg/mL (≈ 178 µM)

**Q.** And the inhibition at 100 µM [3]?
**A.** 49.4%

**Q.** And the IC50 ([4]; range over HeLa and SKOV-3 cell lines)?
**A.** 2.03 to 2.45 µg/mL (≈ 6.02 to 7.26 µM)

**Q.** And the IC50 [4, 12]?
**A.** 2.03 to 5.68 µg/mL (≈ 6.02 to 16.8 µM)

**Q.** What about the “IC50 (range over cell lines)” value [4, 12] of the same compound?
**A.** 2.03 to 5.58 µg/mL

**Q.** And the IC50 [5]?
**A.** 3.02 ± 0.18 µg/mL (≈ 8.95 µM)

**Q.** And the MBC [6]?
**A.** 30 µg/mL (≈ 88.9 µM)

**Q.** And the MIC ([6]; read-out: MIC)?
**A.** 30 µg/mL (≈ 88.9 µM)

**Q.** And the IC50 [7]?
**A.** 2.45 ± 0.13 µg/mL (≈ 7.26 µM)

**Q.** And the IC50 [8]?
**A.** 2.03 ± 0.05 µg/mL (≈ 6.02 µM)

**Q.** What about the IC50 [9] of the same compound?
**A.** 5.68 ± 0.41 µg/mL (≈ 16.8 µM)

**Q.** What about the MFC [10] of the same compound?
**A.** 60 µg/mL (≈ 178 µM)

**Q.** What about the MIC [10] of the same compound?
**A.** 60 µg/mL (≈ 178 µM)

**Q.** And the dead cells ([11]; 2 µg/mL)?
**A.** 6.07 ± 0.58%

**Q.** What about the late apoptotic cells ([11]; 2 µg/mL) of the same compound?
**A.** 11.52 ± 1.53%

**Q.** And the dead cells ([11]; 5 µg/mL)?
**A.** 7.65 ± 0.61%

**Q.** What about the late apoptotic cells ([11]; 5 µg/mL) of the same compound?
**A.** 22.72 ± 1.37%

**Q.** And the dead cells ([11]; 10 µg/mL)?
**A.** 18.11 ± 1.45%

**Q.** And the late apoptotic cells ([11]; 10 µg/mL)?
**A.** 48.85 ± 0.39%

**Q.** What about the dead cells ([11]; 15 µg/mL) of the same compound?
**A.** 31.52 ± 2.68%

**Q.** And the late apoptotic cells ([11]; 15 µg/mL)?
**A.** 54.94 ± 3.12%

**Q.** And the dead cells ([11]; 30 µg/mL)?
**A.** 68.95 ± 2.09%

**Q.** And the late apoptotic cells ([11]; 30 µg/mL)?
**A.** 28.21 ± 1.61%

**Q.** And the dead cells ([11]; 60 µg/mL)?
**A.** 66.85 ± 1.96%

**Q.** And the late apoptotic cells ([11]; 60 µg/mL)?
**A.** 31.87 ± 2.01%

**Q.** And the induction of apoptosis ([11]; from 2 µg/mL to 60 µg/mL)?
**A.** significantly induced apoptosis
